From patent US20260183295A1, “METHODS AND COMPOSITIONS FOR TREATING CANCER” (Onconova Therapeutics, Inc., priority 2022, published 2026)

Tests used:
[1] = test system: Hs578t cells; assay: Wound healing assay (24 Hour Migration Assay); type: cell-based; conditions: 1.0 μM and 10.0 μM
Protocol: A cell-free area was created in a confluent monolayer by physical exclusion or by removing the cells from the area through mechanical, thermal or chemical damage. The exposure to the cell-free area induced the cells to migrate into the gap. The rate of gap closure was measured and plotted.

[2] = test system: Hs578T; assay: MTT cell viability, 48 hours; type: cell-based; conditions: Homo sapiens, Hs-578T, Hs578T (TNBC), read-out: 48 h-cell viability decrease
Protocol: (§1) A panel of […] breast cancer cell lines: T-47D, BT-474, MDA-MB-453, MDA-MB-468, HCC-1937, Hs578T, and MDA-MB-231, was treated for 48 hours with 5 μM Compound 1 and the cell viability was measured using the MTT assay. TABLE 6 summarizes the cell lines, and the change in viability after 48 hours of treatment with Compound 1.

[3] = test system: MDA-MB-468; assay: MTT cell viability, 48 hours; type: cell-based; conditions: Homo sapiens, MDA-MB-468 (TNBC), read-out: 48 h-cell viability decrease
Protocol: as §1

[4] = test system: T-47D; assay: MTT cell viability, 48 hours; type: cell-based; conditions: Homo sapiens, T47D, T-47D (HR+ HER2−), read-out: 48 h-cell viability decrease
Protocol: as §1

[5] = test system: BUB1 in MDA-MB-231; assay: BUB1 levels after 72 hours treatment; type: cell-based; conditions: MDA-MB-231 (TNBC)
Protocol: (§2) The effects on the different treatment conditions on BUB 1 levels and PARP cleavage were also assessed. For both MNA-MB-231 cells, Compound 1 alone or with HCQ or SBI decreased BUB1 levels and cleaved PARP with […] decreases in cell viability observed for all treatments except Compound 1+SBI in MMA-MB-231 cells. The effects of Compound 1 with or without autophagy inhibitors was less pronounced in HCC-1937 cells.

[6] = test system: BUB1 in MDA-MB-468; assay: BUB1 levels after 72 hours treatment; type: cell-based; conditions: MDA-MB-468 (TNBC)
Protocol: as §2

[7] = test system: Hs578T spheroids; assay: Spheroid imaging (Hoechst, F-actin); type: cell-based; conditions: 5 μM, compared to DMSO, Comparator 1 and Comparator 2 (FIG. 18)
[8] = test system: Cyclin D1; assay: Western blot, MDA-MB-231 cells, 24 hours; type: cell-based; conditions: 2.5, 5, 10 μM, versus Comparator 1, 2 and 4
[9] = test system: MDA-MB-231 cells; assay: MTT assay, 24 hours; type: cell-based
[10] = test system: MDA-MB-231 cells; assay: Transmission electron microscopy of cellular morphology; type: cell-based; conditions: 5 μM, 24 hours, compared to DMSO
Protocol: The effect of Compound 1 (5 μM) treatment for 24 hours on cellular morphology was assessed using transmission electron microscopy (TEM) and compared to DMSO. FIG. 27 and FIG. 28 show representative TEM images of MDA-MB-231 cells treated with DMSO or Compound 1.

[11] = test system: MDA-MB-231 cells; assay: Annexin V/PI staining with or without bafilomycin A1, 2 days; type: cell-based; conditions: 5 μM
From the text: The effect was increased with bafilomycin A1 cotreatment.

[12] = test system: B2M; assay: qPCR of mRNA expression, PyMT cells; type: cell-based, mouse; conditions: 24 and 48 hours
[13] = target: T1, NUAK1 (Homo sapiens, UniProt O60285); assay: NUAK1 In Vitro Kd, kinase binding assay (qPCR); conditions: second In Vitro column of Table 8
T1 sequence (O60285 1-661): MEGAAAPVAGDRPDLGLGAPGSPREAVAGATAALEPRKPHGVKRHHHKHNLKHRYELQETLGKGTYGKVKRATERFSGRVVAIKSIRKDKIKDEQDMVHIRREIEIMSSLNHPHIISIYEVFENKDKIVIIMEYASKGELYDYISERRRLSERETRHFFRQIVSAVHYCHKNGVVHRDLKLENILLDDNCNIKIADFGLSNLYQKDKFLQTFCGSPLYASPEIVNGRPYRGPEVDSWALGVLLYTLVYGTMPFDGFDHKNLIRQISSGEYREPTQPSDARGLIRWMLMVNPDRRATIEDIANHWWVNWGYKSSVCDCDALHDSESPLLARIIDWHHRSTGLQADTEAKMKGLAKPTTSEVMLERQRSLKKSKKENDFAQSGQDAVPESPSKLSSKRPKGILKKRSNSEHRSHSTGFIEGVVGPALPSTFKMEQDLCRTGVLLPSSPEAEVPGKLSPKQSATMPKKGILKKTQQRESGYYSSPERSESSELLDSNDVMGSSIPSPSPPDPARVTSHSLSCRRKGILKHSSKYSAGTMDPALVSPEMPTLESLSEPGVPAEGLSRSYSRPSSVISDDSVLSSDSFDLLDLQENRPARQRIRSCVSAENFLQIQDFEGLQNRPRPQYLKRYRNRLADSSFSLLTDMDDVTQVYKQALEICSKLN
Protocol: Kinase-tagged T7 phage strains were prepared in an E. coli host derived from the BL21 strain. E. coli were grown to log-phase and infected with T7 phage and incubated with shaking at 32° C. until lysis. The lysates were spun by centrifuge and filtered to remove cell debris. The remaining kinases were produced in HEK-293 cells and subsequently tagged with DNA for qPCR detection. […] The liganded beads were blocked with excess biotin and washed with blocking buffer (SeaBlock (Pierce), 1% BSA, 0.05% Tween 20, 1 mM DTT) to remove unbound ligand and to reduce non-specific binding. […] Test compounds were prepared as 111× stocks in 100% DMSO. Kds were determined using an 11-point 3-fold compound dilution series with three DMSO control points.
The compounds were then diluted directly into the assays such that the final concentration of DMSO was 0.9%. All reactions performed in polypropylene 384-well plate. Each was a final volume of 0.02 ml. […] The kinase concentration in the eluates was measured by qPCR. Binding constants (Kds) were calculated with a standard dose-response curve using the Hill equation: Response=Background+Signal−Background 1+(KdHill Slope/DoseHill Slope) The Hill Slope was set to −1. Curves were fitted using a non-linear least square fit with the Levenberg-Marquardt algorithm.

[14] = target: CDK4/cyclin D1 (Homo sapiens, UniProt P11802); assay: CDK4/cyclin D1 In Vitro IC50; type: biochemical
Protocol: Substrate was prepared in freshly prepared base reaction buffer. Any required cofactors were delivered to the substrate solution above. Indicated kinase was delivered into the substrate solution and the solution was gently mixed. Compounds were delivered in 100% DMSO into the kinase reaction mixture by Acoustic technology (Echo550; nanoliter range) and incubated for 20 minutes at room temperature. 33P-ATP was delivered into the reaction mixture to initiate the reaction. The kinase reaction was incubated for 2 hours at room temperature. Kinase activity was detected by P81 filter-binding method.

Sequence of CDK4/cyclin D1 (P11802 whole entry): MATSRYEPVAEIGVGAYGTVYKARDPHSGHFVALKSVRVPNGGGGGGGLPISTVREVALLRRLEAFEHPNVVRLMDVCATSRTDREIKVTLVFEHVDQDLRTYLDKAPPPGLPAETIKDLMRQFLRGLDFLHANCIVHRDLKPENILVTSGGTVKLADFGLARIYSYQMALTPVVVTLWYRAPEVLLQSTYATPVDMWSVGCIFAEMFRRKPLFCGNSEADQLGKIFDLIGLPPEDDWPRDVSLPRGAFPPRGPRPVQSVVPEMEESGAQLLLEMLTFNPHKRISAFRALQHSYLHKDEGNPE
Sequence of CDK4/cyclin D1 (P24385 whole entry partner): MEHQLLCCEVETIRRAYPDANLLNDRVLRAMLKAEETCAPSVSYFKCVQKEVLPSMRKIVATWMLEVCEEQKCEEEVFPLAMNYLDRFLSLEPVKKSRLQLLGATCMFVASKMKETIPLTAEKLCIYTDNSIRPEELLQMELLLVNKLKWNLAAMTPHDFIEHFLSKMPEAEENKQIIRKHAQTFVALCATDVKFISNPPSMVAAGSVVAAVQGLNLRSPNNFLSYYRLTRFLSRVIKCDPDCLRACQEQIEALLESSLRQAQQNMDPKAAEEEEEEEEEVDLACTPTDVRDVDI

`CN1CCN(c2ccc(Nc3ncc4cc(C#N)c(=O)n(C5CCCC5)c4n3)cc2)CC1` [Compound 1, 8-cyclopentyl-2-((4-(4-methylpiperazin-1-yl)phenyl)amino)-7-oxo-7,8-dihydropyrido[2,3-d]pyrimidine-6-carbonitrile] was tested, and the “cell migration (rate of gap closure)” value [1] was “inhibited cell migration significantly more than Comparator 1”, the cytotoxicity at 5 µM [2] was 40% and the cytotoxicity at 5 µM [3] was 65%. The cytotoxicity at 5 µM [4] was 60%, the BUB1 [5] was “↓” and the BUB1 [6] was “↓”. The spheroid size [7] was “small decrease in spheroid size”, the “Cyclin D1 levels” value [8] was “decreasing” and the “cell viability (MTT)” value ([9]; 2.5 μM, 5 μM and 10 μM, compared to Comparator 1 and Comparator 2) was “decreases cell viability to a greater extent”. The “effect of zVAD-FMK on cell death, MTT assay” value ([9]; zVAD-FMK 20 μM (FIG. 25)) was “unaffected by zVAD-FMK treatment”, the “cellular morphology (TEM)” value [10] was “extensive vacuolization” and the “cell death (Annexin V/PI), compound alone” value [11] was “induced cell death”. For the same molecule, the “effect of bafilomycin A1 cotreatment on cell death (Annexin V/PI)” value [11] was “increased”, the “B2M mRNA levels” value [12] was “to a greater extent than Comparator 1 did” and the Kd [13] was 0.019 µM. For the same molecule, the IC50 [14] was 2 nM.
